In patent US9828342B2, “Isatin derivatives, pharmaceutical compositions thereof, and methods of use thereof” (CITY OF HOPE, priority 2012, dated 2017):
Like-named read-outs stand apart in the source and are kept apart here. Blank lines part the entries; values can stand above or below the molecule they belong to.

Experiments:
[1] = test system: AKT; experiment: Immunoblot of AKT phosphorylation in A2058 cells; assay type: cell-based, human; details: A2058, 0.5-5 μM, 4 hr, vs negative control, concentration-associated
Method: (§1) A2058 melanoma cells were incubated in complete growth medium in 100 mm petri dishes (1×10^6 cells per dish) for 24 hr. Compound 2 was added at a concentration of 0.5 μM, 1.0 μM, 2.5 μM, and 5 μM respectively. Cell samples that were not added any Compound 2 were negative controls. After 4 hr, cells were lysed using Laemmli buffer. Differences in the phosphorylation of Her2/Neu, Jak2, Src, Stat3, AKT, and Erk1/2 were determined by immunoblot analysis (FIG. 14a).
as §1, with “of” for “of 0.5 μM, 1.0 μM, 2.5 μM, and”, “μM.” for “μM respectively.”, “Cells” for “After 4 hr, cells”, “buffer 0.5 hr, 1 hr, 2 hr, 4 hr, 6 hr and 24 hr after treatment.” for “buffer.”, “of” for “of Her2/Neu,”, “14b).” for “14a).”

[2] = test system: Erk1/2; experiment: Immunoblot of Erk1/2 phosphorylation in A2058 cells; assay type: cell-based, human; details: A2058, 0.5-5 μM, 4 hr, vs negative control, concentration-associated
Method: as §1
as §1, with “of” for “of 0.5 μM, 1.0 μM, 2.5 μM, and”, “μM.” for “μM respectively.”, “Cells” for “After 4 hr, cells”, “buffer 0.5 hr, 1 hr, 2 hr, 4 hr, 6 hr and 24 hr after treatment.” for “buffer.”, “of” for “of Her2/Neu,”, “14b).” for “14a).”

[3] = test system: SKOV3 ovarian cancer cells; experiment: MTS cell viability assay in SKOV3 ovarian cancer cells; assay type: cell-based; details: Homo sapiens, SK-OV-3, SKOV3, 48 hr, 1% DMSO
Method: (§2) Each type of cells (5,000 or 10,000 cells/well) were treated with different concentration (0.1 μM to 20 μM in 1% DMSO of cisplatin or Compound 2, 9, 12, 16 or 22 respectively for 48 hr). Then, MTS assays for cell viability were carried out to determine the IC50 values. Four samples were tested for each test compound at each concentration for each type of cells, and the averaged data were shown in Table 4 and FIGS. 6-8.

[4] = test system: Src; experiment: Immunoblot of Src phosphorylation in A2058 cells; assay type: cell-based, human; details: A2058, 0.5-5 μM, 4 hr, vs negative control, concentration-associated
Method: as §1
as §1, with “of” for “of 0.5 μM, 1.0 μM, 2.5 μM, and”, “μM.” for “μM respectively.”, “Cells” for “After 4 hr, cells”, “buffer 0.5 hr, 1 hr, 2 hr, 4 hr, 6 hr and 24 hr after treatment.” for “buffer.”, “of” for “of Her2/Neu,”, “14b).” for “14a).”

[5] = test system: OVCAR5 ovarian cancer cells; experiment: MTS cell viability assay in OVCAR5 ovarian cancer cells; assay type: cell-based; details: Homo sapiens, OVCAR-5, OVCAR5, 48 hr, 1% DMSO
Method: as §2

[6] = test system: Her2/Neu; experiment: Immunoblot of Her2/Neu phosphorylation in A2058 cells; assay type: cell-based, human; details: A2058, 0.5-5 μM, 4 hr, vs negative control, concentration-associated
Method: as §1

[7] = test system: A2058 human melanoma cells; experiment: MTS cell viability assay in A2058 melanoma cells; assay type: cell-based
Method: (§3) Then, MTS assays for cell viability were carried out to determine the IC50 values. Four samples were tested for each isatin derivative at each concentration in each cell line, and the averaged data were shown in Table 2a and FIGS. 1˜4.
(§4) IC50 of values of isatin derivatives Compounds 101˜123 were determined in cancer cell lines DU145 and A2058 respectively.

[8] = test system: DU145 prostate cancer cells; experiment: MTS cell viability assay in DU145 prostate cancer cells; assay type: cell-based
Method: as §3, §4

[9] = test system: Stat3; experiment: Immunoblot of Stat3 phosphorylation in A2058 cells; assay type: cell-based, human; details: A2058, 0.5-5 μM, 4 hr, vs negative control, concentration-associated
Method: as §1
as §1, with “of” for “of 0.5 μM, 1.0 μM, 2.5 μM, and”, “μM.” for “μM respectively.”, “Cells” for “After 4 hr, cells”, “buffer 0.5 hr, 1 hr, 2 hr, 4 hr, 6 hr and 24 hr after treatment.” for “buffer.”, “of” for “of Her2/Neu,”, “14b).” for “14a).”

[10] = test system: Jak2; experiment: Immunoblot of Jak2 phosphorylation in A2058 cells; assay type: cell-based, human; details: A2058, 0.5-5 μM, 4 hr, vs negative control, concentration-associated
Method: as §1
as §1, with “of” for “of 0.5 μM, 1.0 μM, 2.5 μM, and”, “μM.” for “μM respectively.”, “Cells” for “After 4 hr, cells”, “buffer 0.5 hr, 1 hr, 2 hr, 4 hr, 6 hr and 24 hr after treatment.” for “buffer.”, “of” for “of Her2/Neu,”, “14b).” for “14a).”

[11] = test system: PANC-1 pancreatic cancer cells; experiment: MTS cell viability assay in PANC-1 pancreatic cancer cells; assay type: cell-based; details: Homo sapiens, PANC-1, 48 hr, 1% DMSO
Method: as §2, with “to 10” for “to 20”, “of Compound 2” for “of cisplatin”, “Compound” for “Compound 2, 9, 12, 16 or”, “Table 3” for “Table 4”, “and FIG. 5.” for “and FIGS. 6-8.”

[12] = test system: Erk1/2; experiment: Immunoblot of Erk1/2 phosphorylation in DU145 cells; assay type: cell-based; details: DU145, 0.5-5 μM, 4 hr, EGF 10 ng/ml, vs negative control, concentration-associated
Method: as §1, with “DU145 prostate cancer” for “A2058 melanoma”, “hr, EGF (10 ng/ml final concentration) was added to culture media and” for “hr,”, “Erk1/2” for “Her2/Neu, Jak2, Src, Stat3, AKT,”, “EGFR” for “Erk1/2”, “13).” for “14a).”

[13] = test system: EGFR; experiment: Immunoblot of EGFR phosphorylation in DU145 cells; assay type: cell-based; details: DU145, 0.5-5 μM, 4 hr, EGF 10 ng/ml, vs negative control, concentration-associated
Method: as §1, with “DU145 prostate cancer” for “A2058 melanoma”, “hr, EGF (10 ng/ml final concentration) was added to culture media and” for “hr,”, “Erk1/2” for “Her2/Neu, Jak2, Src, Stat3, AKT,”, “EGFR” for “Erk1/2”, “13).” for “14a).”

[14] = test system: OCI-Ly3 non-Hodgkins B cell lymphoma cells; experiment: MTS cell viability assay in OCI-Ly3 lymphoma cells; assay type: cell-based; details: Homo sapiens, OCI-Ly3, 48 hr, 1% DMSO
Method: as §2, with “concentration (0.01” for “concentration (0.1”, “to 5” for “to 20”, “of the test compound” for “of cisplatin or Compound 2, 9, 12, 16 or 22”, “Table 5” for “Table 4”, “FIGS. 10˜12.” for “FIGS. 6-8.”

[15] = test system: Ly-3 lymphoma SQ xenografts; experiment: Ly-3 lymphoma SQ xenografts in mice; assay type: in vivo; details: oral, 100 mg/kg once a day, 7th treatment day, P=0.03 vs vehicle
Method: Ly-3 lymphoma cells (1×10^7) were subcutaneously injected to II-2 rg(ko)/NOD-SCID female mice. 7 mice were treated with vehicle as the control group once a day. 7 mice were treated with Compound 109 as the treatment group by oral administration at 100 mg/kg dose, once a day. Mice were euthanized at the 7th treatment day by IACUC of the Beckman Research Institute of City of Hope. In the figure, * means P=0.03 wherein P values less than 0.05 were considered statistically significant.

[16] = test system: Cdc25C; experiment: Immunoblot of Cdc25C phosphorylation in DU145 and A2058 cells; assay type: cell-based; details: DU145 or A2058 cells, 0.1, 1 or 2.5 μM, 24 hr, higher dosage
Method: (§5) DU145 prostate cancer cells or A2058 melanoma cells were incubated with Compound 22 at a concentration of 0.1, 1, or 2.5 μM or DMSO for 24 hr. Cells were lysed using Laemmli buffer. The differences in the content of Cyclin B1 and phosphorylation of Cdc25C were determined by immunoblot analysis.

[17] = test system: tubulin; experiment: In vitro tubulin polymerization assay (HTS-Tubulin polymerization assay kit); assay type: biochemical; details: 1 μM, 4 mg/mL tubulin, 1 hr, 37° C.
Method: To determine whether Compound 22 inhibits tubulin formation in vitro, HTS-Tubulin polymerization assay kits (cytoskeleton) were used. The assay procedure was performed using the manufacturer's protocol. Briefly, each 4 mg tubulin was resuspended with 1 mL of the cold G-PEM (80 mM PIPES pH6.9, 2 mM MgCl2, 0.5 mM EGTA) buffer to make the final concentration of 4 mg/mL. The reaction volume was 100 μL. Tubulin polymerization was monitored with the kinetic mode at […] for 1 hr at 37° C. […] Together, compound 22 is a promising lead compound to develop new anticancer drugs as new class of microtubule inhibitors.

[18] = test system: A2780 cisplatin-resistant ovarian cancer cells; experiment: MTS cell viability assay in A2780 cisplatin-resistant ovarian cancer cells; assay type: cell-based; details: for IC50: A2780 cisplatin-resistant, 48 hr, 1% DMSO, MTS
Method: as §2

[19] = test system: Cyclin B1; experiment: Immunoblot of Cyclin B1 content in DU145 and A2058 cells; assay type: cell-based; details: DU145 or A2058 cells, 0.1, 1 or 2.5 μM, 24 hr, higher dosage
Method: as §5

[20] = test system: Anaplastic Large T cell lymphoma cells; experiment: MTS cell viability assay in anaplastic large T cell lymphoma cells; assay type: cell-based; details: 48 hr, 1% DMSO
Method: as §2, with “concentration (0.01” for “concentration (0.1”, “to 5” for “to 20”, “of the test compound” for “of cisplatin or Compound 2, 9, 12, 16 or 22”, “Table 5” for “Table 4”, “FIGS. 10˜12.” for “FIGS. 6-8.”

[21] = test system: Daudi B Cell Burkitt lymphoma cells; experiment: MTS cell viability assay in Daudi lymphoma cells; assay type: cell-based; details: Homo sapiens, 48 hr, 1% DMSO
Method: as §2, with “concentration (0.01” for “concentration (0.1”, “to 5” for “to 20”, “of the test compound” for “of cisplatin or Compound 2, 9, 12, 16 or 22”, “Table 5” for “Table 4”, “FIGS. 10˜12.” for “FIGS. 6-8.”

[22] = test system: PaCa2 pancreatic cancer cells; experiment: MTS cell viability assay in PaCa2 pancreatic cancer cells; assay type: cell-based; details: PaCa-2, PaCa2, 48 hr, 1% DMSO
Method: as §2, with “to 10” for “to 20”, “of Compound 2” for “of cisplatin”, “Compound” for “Compound 2, 9, 12, 16 or”, “Table 3” for “Table 4”, “and FIG. 5.” for “and FIGS. 6-8.”

[23] = Homo sapiens, A2058, 48 h, 0.05 to 10 μM in 1% DMSO, MTS (Table 2a), read-out: A2058 IC50
[24] = Homo sapiens, DU-145, 48 h, DU145, 48 hr, 0.05 to 10 μM in 1% DMSO, MTS (Table 2a), read-out: DU145 IC50

- IC50 [3]: > 5 µM
- IC50 [5]: 800 nM
- IC50 [7, 23]: 780 nM
- IC50 [8, 24]: 790 nM
- IC50 [11]: 970 nM
Compound: O=C1C(=O)N(Cc2ccccc2)c2ccc(-c3cccnc3)cc21 [Compound 2]
- phosphorylation of AKT [1]: less phosphorylations
- phosphorylation of Erk1/2 [2]: less phosphorylations
- phosphorylation of Src [4]: less phosphorylations
- phosphorylation of Her2/Neu [6]: less phosphorylations
- phosphorylation of Stat3 [9]: less phosphorylations
- phosphorylation of Jak2 [10]: less phosphorylations
- phosphorylation of Erk1/2 [12]: less phosphorylations
- phosphorylation of EGFR [13]: less phosphorylations

- IC50 [14]: 63 nM
- IC50 ([7]; A2058, compound in DMSO, 48 hr, MTS (Table 2b), read-out: IC50 value, DMSO, A2058): 580 nM
- IC50 ([7]; Homo sapiens, A2058, 48 h, A2058, compound in water, 48 hr, MTS (Table 2b), read-out: IC50 value, Water, A2058): 1000 nM
- IC50 ([8]; DU145, compound in DMSO, 48 hr, MTS (Table 2b), read-out: IC50 value, DMSO, DU145): 480 nM
- IC50 ([8]; Homo sapiens, DU-145, 48 h, DU145, compound in water, 48 hr, MTS (Table 2b), read-out: IC50 value, Water, DU145): 630 nM
Compound: O=C1C(=O)N(C/C=C/c2cccnc2)c2ccc(-c3cccnc3)cc21 [Compound 109]
- efficacy (tumor volume) in Ly-3 lymphoma SQ xenografts [15]: statistically significantly showed efficacy

- IC50 [14]: 39 nM
- IC50 [5]: 340 nM
- IC50 [7, 23]: 210 nM
- IC50 [8, 24]: 300 nM
- IC50 ([18]; Homo sapiens, A2780, 48 h): 440 nM
- IC50 [20]: 130 nM
- IC50 [21]: 38 nM
- IC50 [22]: 96 nM
- IC50 [11]: 100 nM
Compound: O=C1C(=O)N(C/C=C/c2ccccc2)c2ccc(-c3cccnc3)cc21 [Compound 22]
- phosphorylation of Cdc25C [16]: less phosphorylation of Cdc25C
- tubulin polymerization in vitro [17]: substantially inhibited tubulin polymerization
- content of Cyclin B1 [19]: increased amount of Cyclin B1

- IC50 [14]: 260 nM
- IC50 [5]: 840 nM
- IC50 [7, 23]: 660 nM
- IC50 [8, 24]: 470 nM
- IC50 [18]: 390 nM
- IC50 ([18]; Homo sapiens, A2780, 48 h): 750 nM
Compound: O=C1C(=O)N(CCCc2ccccc2)c2ccc(-c3cccnc3)cc21 [Compound 9]
- viability of A2780 cisplatin-resistant ovarian cancer cells in comparison of cisplatin ([18]; FIG. 9, compared with cisplatin): significantly reduced the viability
